The source of these data is article PMC8179049 (Chemical Science, 2020).

Series [1] deals with T1, human AspH (His6-AspH315-758) (Homo sapiens, UniProt Q12797).
T1 construct: N-Terminally His6-tagged human AspH315-758 (His6-AspH315-758) was produced in Escherichia coli BL21 (DE3); made in house; host or cells: Escherichia coli BL21 (DE3), pET-28a(+) vector
T1 sequence (Q12797 315-758): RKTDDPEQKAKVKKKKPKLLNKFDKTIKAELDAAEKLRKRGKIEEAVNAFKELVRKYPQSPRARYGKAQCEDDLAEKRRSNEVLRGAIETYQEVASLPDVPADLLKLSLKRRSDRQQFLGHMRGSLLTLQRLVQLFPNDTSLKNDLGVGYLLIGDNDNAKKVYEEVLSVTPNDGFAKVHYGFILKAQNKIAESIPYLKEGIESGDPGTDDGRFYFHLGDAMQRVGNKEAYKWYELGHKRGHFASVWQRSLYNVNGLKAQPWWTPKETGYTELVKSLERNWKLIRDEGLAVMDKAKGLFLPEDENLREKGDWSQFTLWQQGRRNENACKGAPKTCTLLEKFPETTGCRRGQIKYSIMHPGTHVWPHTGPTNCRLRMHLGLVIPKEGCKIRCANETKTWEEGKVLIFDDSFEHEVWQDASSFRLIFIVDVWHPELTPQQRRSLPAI
In words: NMR monitoring of AspH-catalyzed oxidative decarboxylation, with final SPE-MS analysis. Format: biochemical. The method, then: 2-methylsuccinate and terephthalate, respectively (continues on the following two pages). The AspH- […]
700 NMR machine equipped with a 5mm 1H(13C/15N) inverse cryoprobe. Assay conditions: 10 μM His6-AspH315- […]
iron(II) sulfate hexahydrate (FAS, (NH4)2Fe(SO4)2·6H2O) in 50 mM aqueous Tris-d11 containing 10 %v/v D2O (pH […]
product of the AspH-catalyzed reaction, was determined using SPE-MS (Supporting Information, Section 9) after […]
of the 1H NMR spectrum of commercial succinate in 50 mM aqueous Tris-d11 containing 10 %v/v D2O (pH 7.5, 25° […]
(1 picture or pasted object on this page, not shown here) […]
using a Bruker AVIII 700 NMR machine equipped with a 5mm 1H(13C/15N) inverse cryoprobe. Assay conditions: […]
ammonium iron(II) sulfate hexahydrate (FAS, (NH 4)2Fe(SO4)2·6H2O) in 50 mM aqueous Tris -d11 containing […]
which is the product of the AspH-catalyzed reaction, was determined using SPE-MS (Supporting Information, Section 9) after completion of the NMR experiments. […]
spectrum of synthetic 34 in 50 mM aqueous Tris-d11 containing 10 %v/v D2O (pH 7.5, 25° C); (b) Close-up (3.0-0.9 ppm) of the 1H NMR spectrum of commercial 2,2-dimethylsuccinate (52) in 50 mM aqueous Tris-d11

The target of series [2] is T1, human AspH (His6-AspH315-758). Put plainly: SPE-MS AspH inhibition assay. The settings on record: 50 nM His6-AspH315–758, 1.0 μM hFX-CP101–119, 3 μM 2OG, mean ± SD, n = 3; for IC50: read-out: IC50 (inhibition of AspH). Format: biochemical. The method, then: 6. Recombinant AspH production and purification
N-Terminally His6-tagged human AspH315-758 (His6-AspH315-758) was produced in Escherichia coli BL21 (DE3) cells using a pET-28a(+) vector and purified by Ni(II)-affinity chromatography (HisTrap HP column, GE Healthcare; 1 mL/min flow rate) and size-exclusion chromatography (HiLoad 26/60 Superdex 75 pg 300 mL column; 1 mL/min) using an ÄKTA pure machine (GE Healthcare) as previously reported.1,4 AspH was >95% pure by SDS-PAGE and MS analysis and had the anticipated mass (calculated for His6-AspH315-758: 54519 Da, found: 54519 Da).1 Purified AspH was stored in 50 mM HEPES buffer (pH 7.5, 150 mM NaCl) at a concentration of 125 μM at -78 °C; fresh aliquots were used for all AspH assays.
7. AspH substrate synthesis
AspH substrates were designed based on the sequence of EGFD1 of human coagulation factor X (hFX amino acids 86-124), which is a reported cellular AspH substrate.2 All substrates were prepared with a C-terminal amide.
The hFX-EGFD186-124-4Ser peptide (hFX amino acids 86-124; Supporting Figure S1c),1 used for crystallography experiments, was synthesized by solid phase peptide synthesis (SPPS) and purified by GL Biochem (Shanghai) Ltd (Shanghai, China). The thioether linked cyclic peptide hFX-CP101-119 (hFX amino acids 101-119; Supporting
Figure S1d), which was used as substrate in AspH SPE-MS assays,4 was synthesized by an intramolecular thioetherification cyclization reaction from the corresponding linear peptide (D-Ala replacing Cys101hFX and Ser replacing Cys112hFX) which was obtained by microwave-assisted solid phase peptide synthesis using the Fmoc-protection strategy as described.4
8. AspH inhibition assays […]
water; ammonium iron(II) sulfate hexahydrate, FAS, (NH 4)2Fe(SO4)2·6H2O: 400 mM in 20 mM HCl diluted to 1 mM in Milli-Q® Ultrapure water) were freshly prepared each day from commercially sourced solids (Sigma […]
(Greiner) in an approximately three-fold and 11-point dilution series (100 μM top concentration) using an ECHO 550 acoustic dispenser (Labcyte). DMSO and 2,4 -PDCA were used as negative and positive controls , respectively .
The final DMSO concentration was kept constant at 0.5%v/v throughout all experiments (using the DMSO backfill option of the acoustic dispenser). Each reaction was performed in technical duplicates in adjacent wells of the assay plates; additionally, assays were performed in three independent technical duplicates on different days using different DMSO inhibitor solutions. […]
dispensed across the inhibitor-containing 384-well assay plates with a multidrop dispenser (ThermoFischer Scientific) at 20°C under an ambient atmosphere. The plates were subsequently centrifuged (1000 rpm, 30 s) and incubated for 15 minutes at 20°C. The Substrate Mixture (25 μL/well), containing 2.0 μM hFX-CP101-119, 200 μM […]
Note: The multidrop dispenser ensured proper mixing of the Enzyme and the Substrate Mixtures which was essential for assay reproducibility. The plates were centrifuged (1000 rpm, 30 s) and af ter incubating for 7 minutes, […]
centrifuged (1000 rpm, 60 s) and analysed by MS.
(§1) The mass spectrometer parameters were:
(§2) Data were exported into Microsoft
(§3) The standard deviation (SD) of three
(§4) Z’-factors were calculated
9. Determination of kinetic parameters […]
(§5) in 50 mM HEPES buffer (pH 7.5).

A further series addresses T2, human AspH (Homo sapiens, UniProt Q12797).
T2 sequence (Q12797 315-758): T1 sequence (Q12797 315-758)
Put plainly: SPE-MS AspH turnover assay in the absence of 2OG (2OG derivative as cosubstrate).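 Further: percent conversion = hydroxylated cyclic peptide peak area relative to summed substrate plus product areas, taken from +2 charge state ion chromatograms by solid phase extraction MS.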 The settings on record: 330 μM 2OG or 2OG derivative, 0.1 μM AspH, 2 μM hFX-CP101-119, 50 μM FAS, t = 15 min.

Series [3] deals with T1, human AspH (His6-AspH315-758). On the set-up: method as in PMID 33069066. The settings on record: ref 41a; read-out: IC50 (inhibition of AspH, literature); cited from earlier work.
Series [4] has the same target. The arrangement: method as in PMID 32107312. The settings on record: cited from earlier work.
The target is the same in series [5]. Put plainly: AspH steady-state kinetics by SPE-MS turnover assays. The format is biochemical. The settings on record: for K app m / v app max: 0.1 μM His6-AspH315–758, 2.0 μM hFX-CP101–119, in the presence of LAA, mean ± SD, n = 3. The method, then: Supporting Figure S6. Initial hydroxylation rates of AspH-catalyzed peptide hydroxylations used to
Measurement times were normalized to the first sample injection analyzed after the addition of the Enzyme
as §1, §2, §3, §4
9. Determination of kinetic parameters
as §5

Structures are written as SMILES. Values joined by “and” are separate entries in the source; they are usually repeats but may differ in a detail not shown here. Identical values can stand only once. Like-named read-outs stand apart in the source and are kept apart here. Bounds are passed on as bounds.

As for `O=C(O)C(=O)CC(Cc1ccccc1)C(=O)O` (stereo not drawn) [compound 32, 4-benzyl-2OG], the melting point (usually the temperature, or range, at which the solid turns liquid) was > 240 °C (dec.). The “AspH-catalyzed oxidative decarboxylation of the 2OG derivative (NMR)” value in series [1] (10 μM His6-AspH315-758, 150 μM hFX-CP101-119, 150 μM 2OG derivative, 50 μM FAS, pH 7.5, 25 °C) is recorded as “apparently not turned over”. Besides, the IC50 (in general, the concentration at which inhibition is half-maximal) in series [2] amounted to 430 ± 50 nM. In addition, the “AspH-catalyzed substrate conversion (hydroxylation of hFX-CP101-119)” value (“AspH-catalyzed substrate conversion” below) on human AspH is under 1%.
Take `O=C(O)c1ccnc(C(=O)O)c1` [2,4-PDCA, pyridine-2,4-dicarboxylate]: the half-maximal inhibitory concentration (IC50) in series [3] is about 30 nM.
With `O=C(O)CCC(=O)C(=O)O` [2OG, 2-Oxoglutarate, reference compound], the “time to complete AspH-catalyzed oxidative decarboxylation (NMR)” value (shortened to “time … (NMR)”) in series [1] (10 μM AspH, 150 μM cosubstrate) was at most 5 min. The “hydroxylation (conversion) of hFX-CP101-119 in the final reaction mixture by SPE-MS” value in series [1] (t = 5 min, 10 μM AspH, 150 μM cosubstrate) was over 95%. Besides, in series [4], the “K app m (2OG) in the absence of LAA” value is about 0.6 µM and the “v app max (2OG) in the absence of LAA” value was about 0.0168 µM/s. For the same compound, in series [5], the k cat was 0.17 ± 0.03 s⁻¹, the K app m stood at 1.3 ± 0.3 µM and the v app max came out at 0.015 ± 0.0009 µM/s.
Take `O=C(O)C(=O)CC(CCCc1ccccc1)C(=O)O` (stereo not drawn) [compound 31]: the melting point is > 220 °C (dec.). Besides, the IC50 in series [2] was 250 ± 50 nM. At human AspH, the “AspH-catalyzed substrate conversion” value was under 1%.
On to `O=C(O)C(=O)N[C@H](Cc1ccccc1)C(=O)O` [NOFD, N-oxalyl-D-phenylalanine], for which the IC50 in series [3] was about 15500 nM.
As to `CC(CC(=O)O)C(=O)C(=O)O` (stereo not drawn) [compound 16, 3-methyl-2OG], the “time … (NMR)” value in series [1] (10 μM AspH, 150 μM cosubstrate) is listed as at most 5 min. Also, in series [2], the “IC50 (inhibition of AspH)” value is “Inactive” and the IC50 is over 50000 nM. For the same compound, in series [5], the K app m is 0.27 ± 0.04 µM and the v app max worked out at 0.0069 ± 0.0002 µM/s. On human AspH, the “AspH-catalyzed substrate conversion” value was over 95%.
As for `O=C(O)C(=O)c1ccc(C(=O)O)cc1` [compound 41, 4-carboxyphenylglyoxylic acid], the melting point is > 350 °C (dec.). Besides, the “time … (NMR)” value in series [1] (10 μM AspH, 150 μM cosubstrate) was at most 5 min. In series [2], the “IC50 (inhibition of AspH)” value was “did not inhibit”. Besides, the “IC50 (inhibition of AspH)” value in series [2] (listed as C00012) was “Inactive”. Besides, in series [5], the K app m was found to be 61.9 ± 11.0 µM and the v app max came out at 0.004 ± 0.0003 µM/s. In series [5] (ratio to K app m of 2OG), the “K app m relative to that for 2OG (times higher)” value is about 47. For the same compound, the “AspH-catalyzed substrate conversion” value on human AspH is given as about 80%.
Take `O=C(O)C(=O)c1ccc(C(=O)O)cc1Br` [compound 44]: the melting point was > 300 °C (dec.). Besides, in series [2], the “IC50 (inhibition of AspH)” value was “Inactive”. The “AspH-catalyzed substrate conversion” value on human AspH is listed as about 20%.
On the same counts, the results for `O=C(O)C(=O)c1ccc(C(=O)O)cc1F` [compound 42] are > 310 °C (dec.), “Inactive” and about 45%.
In the case of `O=C(O)CC(CCCc1ccccc1)C(=O)C(=O)O` (stereo not drawn) [compound 20], the melting point is > 220 °C (dec.). Further, the half-maximal inhibitory concentration (IC50) in series [2] was ~6800 nM and 6800 nM. Also, the “AspH-catalyzed substrate conversion” value at human AspH is under 1%.
As to `O=C(O)CC(Cc1ccccc1)C(=O)C(=O)O` (stereo not drawn) [compound 21], the melting point is > 250 °C (dec.). Also, the IC50 in series [2] is ~1600 nM and 1600 nM. Further, the “AspH-catalyzed substrate conversion” value on human AspH was under 1%.
Regarding `O=C(O)CC(Cc1ccc(F)cc1)C(=O)C(=O)O` (stereo not drawn) [compound 22], the melting point was > 250 °C (dec.). The IC50 in series [2] was determined as 2600 ± 800 nM. For the same compound, on human AspH, the “AspH-catalyzed substrate conversion” value is on record as under 1%.
